This assay addresses T1, AtPEPR1 (Arabidopsis thaliana, UniProt Q9SSL9).
T1 construct: Tobacco cells were transformed with a CaMV-35S-AtPEPR1 gene; expressed in transfected cells; host or cells: tobacco suspension-cultured cells (Agrobacterium-mediated, CaMV 35S promoter)
T1 sequence (Q9SSL9 29-1123): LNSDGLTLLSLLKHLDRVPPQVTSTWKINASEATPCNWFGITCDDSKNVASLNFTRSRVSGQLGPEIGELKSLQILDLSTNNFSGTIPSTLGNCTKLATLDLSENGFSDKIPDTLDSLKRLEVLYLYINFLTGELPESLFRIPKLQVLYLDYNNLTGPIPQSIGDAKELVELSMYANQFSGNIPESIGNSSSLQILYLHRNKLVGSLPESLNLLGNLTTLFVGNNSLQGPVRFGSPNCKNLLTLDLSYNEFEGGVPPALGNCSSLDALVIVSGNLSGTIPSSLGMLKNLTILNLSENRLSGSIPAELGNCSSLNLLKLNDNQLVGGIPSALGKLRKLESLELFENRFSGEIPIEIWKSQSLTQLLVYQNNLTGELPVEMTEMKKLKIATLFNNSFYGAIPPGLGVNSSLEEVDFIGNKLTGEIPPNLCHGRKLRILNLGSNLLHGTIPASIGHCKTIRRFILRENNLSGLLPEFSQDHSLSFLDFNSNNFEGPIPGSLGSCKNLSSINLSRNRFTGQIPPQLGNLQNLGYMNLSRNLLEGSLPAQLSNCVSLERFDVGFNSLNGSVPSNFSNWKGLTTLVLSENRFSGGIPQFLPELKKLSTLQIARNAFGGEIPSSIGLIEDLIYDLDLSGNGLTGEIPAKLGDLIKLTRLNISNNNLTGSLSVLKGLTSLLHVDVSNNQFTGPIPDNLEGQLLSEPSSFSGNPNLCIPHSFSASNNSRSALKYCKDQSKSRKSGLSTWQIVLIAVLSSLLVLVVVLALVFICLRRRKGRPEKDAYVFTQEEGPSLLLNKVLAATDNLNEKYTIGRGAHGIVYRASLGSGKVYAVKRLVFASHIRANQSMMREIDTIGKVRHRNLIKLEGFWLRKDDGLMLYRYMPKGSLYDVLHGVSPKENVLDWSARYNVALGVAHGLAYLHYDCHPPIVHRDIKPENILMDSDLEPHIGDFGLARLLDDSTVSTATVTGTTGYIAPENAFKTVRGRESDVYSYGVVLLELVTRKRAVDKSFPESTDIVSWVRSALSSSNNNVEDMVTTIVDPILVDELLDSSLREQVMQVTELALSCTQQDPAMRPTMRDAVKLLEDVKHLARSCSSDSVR
Description: Photoaffinity labeling of transgenic tobacco cells expressing AtPEPR1. It is filed as binding. The note with it: 50 nM unlabeled competitor, 0.25 nM label. As to the method:
For final confirmation, a photoaffinity-labeling experiment was performed using the transgenic tobacco cells. The transgenic cells were incubated with 0.25 nM ^125I1-azido-Cys-AtPep1 (Yamaguchi et al., Proc. Natl. Acad. Sci. USA 103: 10104-10109, 2006) and irradiated with UV-B to cross-link the AtPep1-binding proteins. After separation of extracted proteins by SDS-PAGE, the labeled proteins were detected on X-ray film. […] Since no specific labeling was detected in wild type tobacco and GUS expressing cells, the proteins labeled specifically by ^125I1-azido-Cys-AtPep1 in AtPEPR1 and AtPEPR2 expressing cells were products from the AtPEPR1 and AtPEPR2 genes.

Data on 1 substance can be found in patent US8686224B2, “Plant defense signal peptides” (priority 2005, dated 2014).

In the case of H-ATKVKAKQRGKEKVSSGRPGQHN-OH [AtPep1], the “labeling of the 170 kDa protein by 125I1-azido-Cys-AtPep1 with competitor” value was “not in the cells incubated with 50 nM unlabeled AtPep1”.
